Test results taken from ChEMBL document CHEMBL1156646, “Natural products chemistry and taxonomy of the marine cyanobacterium Blennothrix cantharidosmum” (J Nat Prod, 2008).
The source made the active and inactive calls. No cut-off for these calls is given here.

What was measured:
Plasmodium falciparum [1] = assay: Antimalarial activity against Plasmodium falciparum at 10 ug/ml; type: functional, organism-based
Plasmodium falciparum [2] = assay: Antimalarial activity against Plasmodium falciparum; type: functional, organism-based
Vibrio harveyi = assay: Inhibition of bioluminescence in wild type Vibrio harveyi BB120 by quorum sensing assay; type: functional, organism-based, Vibrio harveyi ATCC BAA-1116

Row | SMILES | Activity (Plasmodium falciparum [1]) | IC50 (Plasmodium falciparum [2]) [µM] | IC50 (Vibrio harveyi) [µM]
1 | CCCCCCC/C=C(\C)[C@@H](O)[C@@H](C)C(=O)N1CCC[C@H]1C(=O)O | inactive |  | 
2 | CCCCCCCC[C@H](C)C(=O)N1CCC[C@H]1C(=O)O[C@@H](C(=O)O[C@@H](C)C(=O)O)[C@@H](C)CC | inactive |  | 
3 | CCCC[C@H](C)C[C@H](C)C(=O)N1CCC[C@H]1C(=O)O[C@@H](C(=O)O[C@H](C(=O)O)[C@@H](C)CC)[C@@H](C)CC [TUMONOIC ACID I] |  | 2 | 
4 | CCCCCCCCC(C)[C@H](OC(C)=O)[C@H](C)C(=O)N1CCC[C@H]1C(=O)O (stereo partly drawn) [TUMONOIC ACID F] | inactive |  | 62
5 | CCCCC(C)/C=C(\C)[C@H](O)[C@H](C)C(=O)N1CCC[C@H]1C(=O)O (stereo partly drawn) | inactive |  | 
6 | CCCCCCCC[C@H](C)C(=O)N1CCC[C@H]1C(=O)O[C@@H](C(=O)O[C@H](C(=O)O)C(C)C)C(C)C | inactive |  | 
7 | CCCCCCCC[C@H](C)C(=O)N1CCC[C@H]1C(=O)O | inactive |  | 
